What is called IC50 is the concentration that inhibits the measured activity by half. A word on the AUC(0-inf): it is the area under the concentration-time curve extrapolated to infinity. The Tmax is the time at which the peak concentration occurs. By half-life is commonly meant the time in which the quantity being followed falls by half. Broadly, the Cmax is the peak of the concentration-time curve.

Where two headings read alike, the source gives them in different places.

The target of data set [1] is T1, BTK(wt) (Homo sapiens (Human), UniProt Q06187). Nature of the data set: pBTK inhibition in HEK293 cells transfected with BTK(wt) (ELISA). It counts as cell-based. As to conditions: 2 h. The method, then: For positive (high signal) controls, cells were treated with 0.5% DMSO alone. […] The absorbance was read at 450 nm. • Based on the absorbance readings of the positive and negative control values, the % inhibition value was calculated according to the following formula: (% INH=((positive control−sample)/(positive control−negative control))×100. • The Z′ value was calculated based on the following formula: 1−((3×standard deviation of positive+3×standard deviation of negative)/(mean positive−mean negative)). • The […] was plotted using GraphPad Prism. • IC50 values were determined after sigmoidal dose-response curve fitting.
T1 sequence (Q06187 whole entry): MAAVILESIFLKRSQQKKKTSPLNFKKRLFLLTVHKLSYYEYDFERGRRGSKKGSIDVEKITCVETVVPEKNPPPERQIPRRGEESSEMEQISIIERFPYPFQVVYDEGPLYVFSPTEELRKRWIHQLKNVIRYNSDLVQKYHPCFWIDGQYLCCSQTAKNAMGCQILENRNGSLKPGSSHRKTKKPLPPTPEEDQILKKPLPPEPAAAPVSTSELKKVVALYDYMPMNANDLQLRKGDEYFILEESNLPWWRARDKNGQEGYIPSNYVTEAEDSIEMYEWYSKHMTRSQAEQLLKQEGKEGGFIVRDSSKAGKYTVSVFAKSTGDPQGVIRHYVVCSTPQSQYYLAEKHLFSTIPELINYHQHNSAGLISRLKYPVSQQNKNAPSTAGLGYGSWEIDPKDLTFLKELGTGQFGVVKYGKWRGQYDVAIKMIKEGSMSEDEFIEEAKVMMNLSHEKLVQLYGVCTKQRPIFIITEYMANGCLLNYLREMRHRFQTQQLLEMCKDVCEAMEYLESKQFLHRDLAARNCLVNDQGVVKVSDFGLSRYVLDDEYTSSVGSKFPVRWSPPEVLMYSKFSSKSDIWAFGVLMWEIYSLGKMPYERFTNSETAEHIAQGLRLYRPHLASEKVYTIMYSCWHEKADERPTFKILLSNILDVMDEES
Background: ELISA stands for enzyme-linked immunosorbent assay.

Another data set deals with OCI-LY10. Briefly: In vitro tumor cell proliferation inhibition, OCI-LY10 (CellTiter-Glo). It counts as cell-based. As to conditions: Homo sapiens; OCI-LY10 cells, 72 h. The method, then: (1) Method • The tumor cell line (TMD-8/OCY-LY10) was suspended in RPMI1640+FBS10% and cultured in an incubator (37° C., 5% CO2). Cells were passaged periodically, and cells at logarithmic growth phase were collected for plating. • Cell staining was performed with trypan blue and viable cells were counted. • Cell concentration was adjusted to 7000 cells/well with medium. • 90 μL of cell suspension was added to a 96-well plate and cell-free culture medium was added to the blank control wells. • Cells in the 96-well plate were incubated overnight in an incubator (37° C., 5% CO2, 100% relative humidity). • Preparation of 400× compound storage plates: test compounds and reference drug were each dissolved in DMSO and 3× diluted from the highest concentration (400 μM) to the lowest concentration (0.61 μM). • Preparation of 10× compound working solutions: 78 μL of cell culture medium was added to a V-bottom 96-well plate, and 2 μL of the compound was pipetted from the 400× compound storage plate into the 96-well plate. Vehicle control wells and blank control wells were added with 2 μL of DMSO. […] Inhibition rates of compounds at different concentrations were calculated in Excel, followed by plotting the inhibition curves and calculating IC50 values with GraphPad Prism.
(In general: Cellular ATP, detected with luciferase, serves as a proxy for viable cell number.)

The target in data set [2] is T1, BTK(wt). Nature of the data set: In vitro inhibitory activity against BTK(wt) enzyme (33P-ATP filter binding). It counts as biochemical. As to conditions: class symbols.
The subject of another data set is OCI-LY10 xenograft tumor. Briefly: OCI-LY10 xenograft tumor model. It counts as in vivo. As to conditions: for TGI: bid. The method, then: CB17/SCID female mice with serious immune deficiency were purchased from Beijing Vital River Laboratory Animal Technology Co., Ltd. and bred in SPF animal houses. Human OCI-LY10 cells (Shanghai Junrui-UFBN0102) were cultured in an RPMI 1640 culture medium containing 10% fetal bovine serum, 100 U/mL penicillin and 100 μg/mL streptomycin through monolayer culture in vitro in an incubator (37° C., 5% C02). Routine treatment was performed twice a week for passaging. At a cell saturation of 80%-90% and a required number, the cells were harvested and counted. 0.2 mL (1×10^7) of OCI-LY10 cells (together with matrigel at a volume ratio of 1:1) were subcutaneously inoculated into the right back of each mouse, and the tumor size could be measured about one week after inoculation. Tumor size was measured using a vernier caliper and tumor volume was calculated using the following formula: tumor volume=(length×width^2)/2.

Data set [3] in a line: Pharmacokinetic study in male SD rats, intragastric. As to conditions: rat, 5 mg/kg. It is filed as in vivo. The procedure:
Male SD rats were fasted overnight before test. The test drugs were each suspended in a solution of 0.5% methylcellulose (MC) and 0.1% SDS in deionized water (w/w/v), and the suspension, each at a concentration of 1 mg/mL, was administered intragastrically at 5 mL/kg. At 15 min, 30 min, 1 h, 2 h, 4 h, 6 h, 8 h and 24 h after administration, approximately 0.4 mL of whole blood was collected from the orbital venous plexus of the animals and then placed in heparin anticoagulant tubes. Three animals were sampled at each time point and then put to death, and thus sample collection was completed on different individuals. The whole blood sample would be centrifuged within 15 min and centrifuged at 4° C./4200 rpm for 5 min. All plasma samples were stored in a refrigerator at −80±15° C. prior to analysis. An LC-MS/MS (Waters I Class UPLC-Xevo TQD tandem mass spectrometry) assay for the compounds was established prior to sample analysis. The collected plasma was quantitatively analyzed, plasma concentration-time data of animals were analyzed using WinNonlin (professional edition, version 5.2) software, a non-compartmental model was used for concentration analysis, and the pharmacokinetic parameters of the test compounds were calculated.

As to `Nc1nccn2c(C34CCC(NC(=O)CN5CCOCC5)(CC3)C4)nc(-c3ccc(C(=O)Nc4cc(C(F)(F)F)ccn4)cc3)c12` [Compound A-10-10, 4-(8-amino-3-(4-(2-morpholinoacetamido)bicyclo[2.2.1]heptan-1-yl)imidazo[1,5-a]pyrazin-1-yl)-N-(4-(trifluoromethyl)pyridin-2-yl)benzamide], the concentration for half-maximal inhibition (IC50) was 77 nM at BTK(wt) [1], 10.3 nM in the data set on OCI-LY10 and 1 to 10 nM at BTK(wt) [2]. In addition, the xenograft tumors disappearance result in the data set with OCI-LY10 xenograft tumor (25 mg/kg group, after 28 days of administration) is on record as “disappeared completely”; in the data set with OCI-LY10 xenograft tumor (50 mg/kg group, after 21 days of administration), “completely disappeared”. In addition, the “tolerance of tumor-bearing mice” value in the data set with OCI-LY10 xenograft tumor (all dosages) was “good tolerance”. Further, the “effect on body weight of tumor-bearing mice” value in the data set with OCI-LY10 xenograft tumor (all treatment groups) is reported as “no significant weight loss”. In addition, the TGI in the data set with OCI-LY10 xenograft tumor (intragastric 25 mg/kg) and in the data set on OCI-LY10 xenograft tumor (intragastric 50 mg/kg) was 110% throughout. The compound also gave a total exposure AUC(0-inf) in data set [3] (male, SD, plasma, po) of 73300 ng·h/mL. Also, in data set [3] (male, SD, plasma, po), the Tmax worked out at 2 h. In addition, the half-life in data set [3] (male, SD, plasma, po) was 3.74 h. Besides, the Cmax in data set [3] (male, SD, plasma, po, p.o., read-out: Cmax) worked out at 8320 ng/mL; in data set [3] (p.o.), 8323 ng/mL. Moreover, the AUC0-INF in data set [3] (p.o.) came to 73318 ng·h/mL.

For the origin of these results see US11420975B2, “Substituted imidazo[1,5-a]pyrazines as Bruton's tyrosine kinase inhibitors” (TRANSTHERA SCIENCES (NANJING), INC., priority 2018, dated 2022).
